Experimental findings from ChEMBL document CHEMBL6134931, “Lysine-Targeted Covalent Strategy Leading to the Discovery of Novel Potent PROTAC-Based PI3Kδ Degraders” (J Med Chem, 2025) are described below.

The target in assay [1] is Protein cereblon/Phosphatidylinositol 4,5-bisphosphate 3-kinase catalytic subunit alpha isoform (Homo sapiens, UniProt P42336+Q96SW2). The assay can be described thus: PROTAC activity at CRBN/p110alpha in human MDA-MB-231 cells assessed as induction of p110alpha degradation. It counts as cell-based.
Assay [2] has as its system MDA-MB-231. The experiment in a line: Antiproliferative activity against human MDA-MB-231 cells. It counts as functional, cell-based.
For assay [3], the target named is von Hippel-Lindau disease tumor suppressor/Phosphatidylinositol 4,5-bisphosphate 3-kinase catalytic subunit delta isoform (Homo sapiens) (UniProt O00329+P40337). The experiment in a line: PROTAC activity at VHL/p110delta in human SU-DHL-6 cells assessed as induction of p110delta degradation at 100 nM measured after 12 hrs in presence of (2S,4R)-1-((S)-2-acetamido-3,3-dimethylbutanoyl)-4-hydroxy-N-(4-(4-methylthiazol-5-yl)benzyl)pyrrolidine-2-carboxamide by Western blot analysis. It counts as cell-based. A general note: A western blot detects proteins with antibodies after separation by electrophoresis.

Assay [4] concerns the target T1, Phosphatidylinositol 4,5-bisphosphate 3-kinase catalytic subunit delta isoform (Homo sapiens) (UniProt O00329).
T1 sequence (whole entry): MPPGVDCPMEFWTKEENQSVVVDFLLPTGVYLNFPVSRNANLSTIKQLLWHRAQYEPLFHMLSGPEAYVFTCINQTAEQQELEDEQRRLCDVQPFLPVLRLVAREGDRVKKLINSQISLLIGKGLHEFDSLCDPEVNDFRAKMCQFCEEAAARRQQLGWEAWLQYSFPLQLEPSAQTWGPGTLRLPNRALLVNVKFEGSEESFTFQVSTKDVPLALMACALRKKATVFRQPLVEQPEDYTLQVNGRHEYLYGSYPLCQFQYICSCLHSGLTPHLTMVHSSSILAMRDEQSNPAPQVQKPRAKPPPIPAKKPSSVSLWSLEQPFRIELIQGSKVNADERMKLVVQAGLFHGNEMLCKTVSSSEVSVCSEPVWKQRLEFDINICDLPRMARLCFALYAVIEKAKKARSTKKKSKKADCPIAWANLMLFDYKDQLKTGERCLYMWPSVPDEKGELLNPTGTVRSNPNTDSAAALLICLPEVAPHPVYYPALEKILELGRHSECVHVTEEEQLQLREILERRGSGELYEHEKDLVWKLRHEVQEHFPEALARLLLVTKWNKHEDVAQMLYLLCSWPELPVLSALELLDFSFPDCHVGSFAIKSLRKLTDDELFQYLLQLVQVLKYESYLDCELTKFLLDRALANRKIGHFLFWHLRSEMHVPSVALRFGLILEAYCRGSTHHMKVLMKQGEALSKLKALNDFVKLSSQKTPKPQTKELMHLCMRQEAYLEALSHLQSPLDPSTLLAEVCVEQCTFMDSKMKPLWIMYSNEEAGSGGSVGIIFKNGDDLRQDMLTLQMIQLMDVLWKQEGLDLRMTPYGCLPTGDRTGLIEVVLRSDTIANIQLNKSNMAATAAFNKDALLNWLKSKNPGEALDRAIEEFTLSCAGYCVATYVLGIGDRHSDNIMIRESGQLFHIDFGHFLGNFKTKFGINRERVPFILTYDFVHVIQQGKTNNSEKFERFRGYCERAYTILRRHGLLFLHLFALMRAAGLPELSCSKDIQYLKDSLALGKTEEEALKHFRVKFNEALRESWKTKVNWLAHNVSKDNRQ
The experiment in a line: Induction of p110delta degradation in human SU-DHL-6 cells at 1000 nM incubated for 24 hrs by Western blot analysis. It counts as cell-based.

Assay [5] addresses Protein cereblon/Phosphatidylinositol 4,5-bisphosphate 3-kinase catalytic subunit gamma isoform (Homo sapiens, UniProt P48736+Q96SW2). The experiment in a line: PROTAC activity at CRBN/p110gamma (unknown origin) in Acute myeloid leukemic cell. It counts as cell-based.
Assay [6] concerns SU-DHL-6. The experiment in a line: Inhibition of AKT phosphorylation in human SU-DHL-6 cells at 0.1 to 1 uM incubated for 24 hrs by Western blot analysis. It counts as cell-based. Particulars: dose 0.1-1 µM.
Assay [7] concerns SU-DHL-6. The experiment in a line: Cell cycle arrest in human SU-DHL-6 cells assessed as increase in G1 phase cells incubated for 24 hrs by PI staining based flow cytometric analysis. It counts as functional. Particulars: dose 0.01-1 µM.
The subject of assay [8] is SU-DHL-6. The experiment in a line: Induction of apoptosis in human SU-DHL-6 cells assessed as viable cells at 0.1 uM incubated for 24 hrs by Annexin V-FITC/PI staining based flow cytometric analysis (reference value: 92.54 %). It counts as functional. Particulars: read-out: Activity. (In general: In flow cytometry, cells or beads pass a laser one at a time.)
Assay [9] concerns Pfeiffer. The assay can be described thus: Antiproliferative activity against human Pfeiffer cells assessed as cell growth inhibition incubated for 72 hrs by MTT assay. It counts as functional.
Assay [10] deals with SU-DHL-6. The experiment in a line: Induction of apoptosis in human SU-DHL-6 cells assessed as viable cells at 1 uM incubated for 24 hrs by Annexin V-FITC/PI staining based flow cytometric analysis (reference value: 92.54 %). Particulars: read-out: Activity. It counts as functional.
Assay [11] relates to SU-DHL-6. The assay can be described thus: Inhibition of AKT phosphorylation in human SU-DHL-6 cells at 1 to 10000 nM incubated for 24 hrs by Western blot analysis. It counts as cell-based. Particulars: dose 1-10000 nM.
Assay [12] deals with SU-DHL-6. The assay can be described thus: Induction of apoptosis in human SU-DHL-6 cells assessed as late apoptotic cells at 0.1 uM incubated for 24 hrs by Annexin V-FITC/PI staining based flow cytometric analysis (reference value: 4.75 %). It counts as functional.
In assay [13] the test system is SU-DHL-6. The experiment in a line: Induction of apoptosis in human SU-DHL-6 cells assessed as early apoptotic cells at 0.1 uM incubated for 24 hrs by Annexin V-FITC/PI staining based flow cytometric analysis (reference value: 2.32 %). It counts as functional.
The test system of assay [14] is SU-DHL-6. The experiment in a line: Induction of apoptosis in human SU-DHL-6 cells assessed as necrotic cells at 0.01 uM incubated for 24 hrs by Annexin V-FITC/PI staining based flow cytometric analysis (reference value: 0.39 %). It counts as functional.
The test system of assay [15] is SU-DHL-6. The experiment in a line: Cell cycle arrest in human SU-DHL-6 cells assessed as increase in G1 phase cells at 0.1 uM incubated for 24 hrs by PI staining based flow cytometric analysis. It counts as functional.
In assay [16] the test system is SU-DHL-6. The experiment in a line: Induction of apoptosis in human SU-DHL-6 cells assessed as early apoptotic cells at 1 uM incubated for 24 hrs by Annexin V-FITC/PI staining based flow cytometric analysis (reference value: 2.32 %). It counts as functional.
The subject of assay [17] is SU-DHL-6. The experiment in a line: Induction of apoptosis in human SU-DHL-6 cells assessed as necrotic cells at 1 uM incubated for 24 hrs by Annexin V-FITC/PI staining based flow cytometric analysis (reference value: 0.39 %). It counts as functional.
In assay [18] the test system is SU-DHL-6. The assay can be described thus: Induction of apoptosis in human SU-DHL-6 cells assessed as late apoptotic cells at 0.01 uM incubated for 24 hrs by Annexin V-FITC/PI staining based flow cytometric analysis (reference value: 4.75 %). It counts as functional.
Assay [19] concerns SU-DHL-6. The assay can be described thus: Induction of apoptosis in human SU-DHL-6 cells assessed as viable cells at 0.01 uM incubated for 24 hrs by Annexin V-FITC/PI staining based flow cytometric analysis (reference value: 92.54 %). It counts as functional. Particulars: read-out: Activity.
The test system of assay [20] is SU-DHL-6. The assay can be described thus: Antiproliferative activity against human SU-DHL-6 cells assessed as cell growth inhibition incubated for 72 hrs by MTT assay. It counts as functional. Background: Tetrazolium dyes change colour on reduction, which living cells bring about.
The test system of assay [21] is SU-DHL-6. The assay can be described thus: Induction of apoptosis in human SU-DHL-6 cells assessed as early apoptotic cells at 0.01 uM incubated for 24 hrs by Annexin V-FITC/PI staining based flow cytometric analysis (reference value: 2.32 %). It counts as functional.
Assay [22] concerns SU-DHL-6. The experiment in a line: Induction of apoptosis in human SU-DHL-6 cells assessed as necrotic cells at 0.1 uM incubated for 24 hrs by Annexin V-FITC/PI staining based flow cytometric analysis (reference value: 0.39 %). It counts as functional.
Assay [23] relates to SU-DHL-6. The experiment in a line: Induction of autophagy in human SU-DHL-6 cells assessed as increase in LC3-II to LC3-I ratio at 1 to 100 nM incubated for 24 hrs by Western blot analysis. It counts as functional, cell-based. Particulars: dose 1-100 nM.
For assay [24], the system named is SU-DHL-6. The experiment in a line: Induction of apoptosis in human SU-DHL-6 cells assessed as late apoptotic cells at 1 uM incubated for 24 hrs by Annexin V-FITC/PI staining based flow cytometric analysis (reference value: 4.75 %). It counts as functional.
The subject of assay [25] is SU-DHL-6. The experiment in a line: Antitumor activity against human SU-DHL-6 cells xenografted in male nude mouse model assessed as tumor growth inhibition at 2 mg/kg, ip administered for 21 days relative to control. It counts as functional. Particulars: SU-DHL-6, 504 h, time 21 day, read-out: TGI.
Assay [26] concerns SU-DHL-6. The experiment in a line: Induction of apoptosis in human SU-DHL-6 cells assessed as late apoptotic cells at 10 uM incubated for 24 hrs by Annexin V-FITC/PI staining based flow cytometric analysis (reference value: 4.75 %). It counts as functional.
The subject of assay [27] is SU-DHL-6. The experiment in a line: Induction of apoptosis in human SU-DHL-6 cells assessed as necrotic cells at 10 uM incubated for 24 hrs by Annexin V-FITC/PI staining based flow cytometric analysis (reference value: 0.39 %). It counts as functional.
The subject of assay [28] is SU-DHL-6. The assay can be described thus: Induction of apoptosis in human SU-DHL-6 cells assessed as viable cells at 10 uM incubated for 24 hrs by Annexin V-FITC/PI staining based flow cytometric analysis (reference value: 92.54 %). Particulars: read-out: Activity. It counts as functional.
Assay [29] deals with T1, Phosphatidylinositol 4,5-bisphosphate 3-kinase catalytic subunit delta isoform (Homo sapiens). Particulars: dose 100.0 nM, time 90.0 min.
The test system of assay [30] is SU-DHL-6. The experiment in a line: Induction of apoptosis in human SU-DHL-6 cells assessed as early apoptotic cells at 10 uM incubated for 24 hrs by Annexin V-FITC/PI staining based flow cytometric analysis (reference value: 2.32 %). It counts as functional.

pIC50: −log10 of the molar value. Calls of active or inactive are those of the source. The rule behind the calls is not given here.

Chain of Protein cereblon/Phosphatidylinositol 4,5-bisphosphate 3-kinase catalytic subunit alpha isoform (P42336 whole entry, canonical isoform): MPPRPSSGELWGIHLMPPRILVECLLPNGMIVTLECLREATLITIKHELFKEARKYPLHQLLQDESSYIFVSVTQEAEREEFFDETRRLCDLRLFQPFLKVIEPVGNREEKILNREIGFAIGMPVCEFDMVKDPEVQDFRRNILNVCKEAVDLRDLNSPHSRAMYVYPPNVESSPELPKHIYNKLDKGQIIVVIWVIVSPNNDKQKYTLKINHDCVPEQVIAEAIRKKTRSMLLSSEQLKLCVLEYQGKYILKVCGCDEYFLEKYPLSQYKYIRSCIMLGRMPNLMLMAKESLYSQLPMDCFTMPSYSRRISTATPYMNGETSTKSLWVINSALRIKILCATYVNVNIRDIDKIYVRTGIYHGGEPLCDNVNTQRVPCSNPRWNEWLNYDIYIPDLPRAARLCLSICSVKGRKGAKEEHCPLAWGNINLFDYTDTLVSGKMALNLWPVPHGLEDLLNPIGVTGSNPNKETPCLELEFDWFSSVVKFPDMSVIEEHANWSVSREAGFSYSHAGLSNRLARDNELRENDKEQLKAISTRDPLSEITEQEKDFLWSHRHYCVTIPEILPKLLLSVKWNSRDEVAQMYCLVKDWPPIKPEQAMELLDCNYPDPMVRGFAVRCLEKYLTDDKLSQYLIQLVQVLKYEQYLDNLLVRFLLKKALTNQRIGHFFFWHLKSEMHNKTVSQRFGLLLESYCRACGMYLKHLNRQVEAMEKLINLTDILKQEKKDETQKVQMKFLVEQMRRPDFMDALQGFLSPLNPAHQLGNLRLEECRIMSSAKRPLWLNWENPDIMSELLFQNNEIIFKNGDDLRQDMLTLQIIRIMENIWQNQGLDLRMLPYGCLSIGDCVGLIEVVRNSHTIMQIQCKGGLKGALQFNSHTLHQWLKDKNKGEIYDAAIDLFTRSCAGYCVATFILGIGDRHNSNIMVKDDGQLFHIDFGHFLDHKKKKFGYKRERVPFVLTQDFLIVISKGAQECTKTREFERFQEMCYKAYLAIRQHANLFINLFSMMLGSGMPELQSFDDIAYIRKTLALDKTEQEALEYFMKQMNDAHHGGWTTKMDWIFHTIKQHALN
Chain of Protein cereblon/Phosphatidylinositol 4,5-bisphosphate 3-kinase catalytic subunit alpha isoform (Q96SW2 whole entry, canonical isoform): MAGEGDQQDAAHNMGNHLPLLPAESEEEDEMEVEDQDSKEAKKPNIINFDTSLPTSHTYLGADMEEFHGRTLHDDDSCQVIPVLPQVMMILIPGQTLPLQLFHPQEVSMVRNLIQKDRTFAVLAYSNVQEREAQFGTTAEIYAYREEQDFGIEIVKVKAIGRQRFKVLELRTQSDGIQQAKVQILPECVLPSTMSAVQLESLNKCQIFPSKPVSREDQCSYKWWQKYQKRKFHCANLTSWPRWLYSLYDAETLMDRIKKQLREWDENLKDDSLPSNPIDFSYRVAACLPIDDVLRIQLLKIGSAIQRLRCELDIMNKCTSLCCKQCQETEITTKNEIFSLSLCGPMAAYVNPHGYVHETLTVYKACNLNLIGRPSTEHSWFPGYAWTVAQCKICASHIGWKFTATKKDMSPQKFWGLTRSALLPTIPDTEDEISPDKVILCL
Chain of von Hippel-Lindau disease tumor suppressor/Phosphatidylinositol 4,5-bisphosphate 3-kinase catalytic subunit delta isoform (Homo sapiens) (P40337 whole entry, looked up, one chain of several, canonical isoform): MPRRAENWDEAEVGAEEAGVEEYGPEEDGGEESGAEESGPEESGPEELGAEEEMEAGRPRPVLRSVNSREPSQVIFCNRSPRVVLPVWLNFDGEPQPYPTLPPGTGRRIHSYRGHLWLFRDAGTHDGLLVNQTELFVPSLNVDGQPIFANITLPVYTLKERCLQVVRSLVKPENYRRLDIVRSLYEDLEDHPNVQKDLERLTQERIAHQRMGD
Chain of Protein cereblon/Phosphatidylinositol 4,5-bisphosphate 3-kinase catalytic subunit gamma isoform (P48736 whole entry, canonical isoform): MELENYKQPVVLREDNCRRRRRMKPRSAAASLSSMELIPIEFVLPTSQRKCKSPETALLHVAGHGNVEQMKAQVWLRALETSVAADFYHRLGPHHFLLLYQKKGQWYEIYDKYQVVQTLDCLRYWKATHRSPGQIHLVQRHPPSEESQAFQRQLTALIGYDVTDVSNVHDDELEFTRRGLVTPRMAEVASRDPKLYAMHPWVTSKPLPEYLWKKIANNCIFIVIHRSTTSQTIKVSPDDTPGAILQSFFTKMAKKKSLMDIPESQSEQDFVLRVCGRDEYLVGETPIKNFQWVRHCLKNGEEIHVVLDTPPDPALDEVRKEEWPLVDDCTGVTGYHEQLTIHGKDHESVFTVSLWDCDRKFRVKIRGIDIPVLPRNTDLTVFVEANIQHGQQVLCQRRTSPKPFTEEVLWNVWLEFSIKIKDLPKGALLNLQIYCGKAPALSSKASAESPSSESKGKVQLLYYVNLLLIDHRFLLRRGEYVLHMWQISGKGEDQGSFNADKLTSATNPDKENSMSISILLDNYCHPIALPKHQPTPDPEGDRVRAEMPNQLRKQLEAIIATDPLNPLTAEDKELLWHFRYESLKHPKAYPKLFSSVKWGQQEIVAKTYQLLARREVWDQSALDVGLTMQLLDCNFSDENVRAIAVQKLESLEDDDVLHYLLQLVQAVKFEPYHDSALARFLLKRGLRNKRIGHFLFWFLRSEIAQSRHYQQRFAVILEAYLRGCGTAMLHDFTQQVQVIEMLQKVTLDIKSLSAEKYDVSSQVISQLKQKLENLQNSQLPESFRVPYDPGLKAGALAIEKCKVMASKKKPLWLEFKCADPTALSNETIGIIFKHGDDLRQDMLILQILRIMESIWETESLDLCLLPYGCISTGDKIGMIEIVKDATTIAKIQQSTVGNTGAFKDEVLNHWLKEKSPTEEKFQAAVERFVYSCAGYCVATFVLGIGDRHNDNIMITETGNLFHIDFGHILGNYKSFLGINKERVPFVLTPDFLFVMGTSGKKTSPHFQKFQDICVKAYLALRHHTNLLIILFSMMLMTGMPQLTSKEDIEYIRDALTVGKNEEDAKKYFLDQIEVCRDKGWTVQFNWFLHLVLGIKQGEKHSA
Chain of Protein cereblon/Phosphatidylinositol 4,5-bisphosphate 3-kinase catalytic subunit gamma isoform (Q96SW2 whole entry, canonical isoform): as the sequence (Q96SW2 whole entry, canonical isoform) above

In the case of `COc1c(OCCOCCOCCCCCc2cn(CCCCCNc3cccc4c3C(=O)N(C3CCC(=O)NC3=O)C4=O)nn2)ccc2c1N=C(NC(=O)c1cnc(N)nc1)N1CCN=C21` (stereo unspecified), the DC50 in assay [1] turned out to be 0.005 µM. The same compound showed a pIC50 in [2] of 7.06.
As for `COc1ncc(-c2ccc3ncnc(N[C@H]4CCN(C(=O)C5CCOCC5)C4)c3n2)cc1C(=O)Oc1ccccc1`, the Activity entry in assay [3] was “Not active; Formation Of Ternary Complex Plays A Pivotal Factor In Degradation”; in assay [4] it was under 20%.
Take `Cc1cc(-c2sc(NC(=O)CCCC(=O)NCCCCCCCC(=O)Nc3cccc4c3C(=O)N(C3CCC(=O)NC3=O)C4=O)nc2C)cc2c1C(=O)N([C@H](C)C1CC1)C2` (stereo partly specified): the DC50 in [5] was over 0.1 µM.
Turning to `COc1ncc(-c2ccc3ncnc(N[C@H]4CCN(C(=O)C5CCN(CCCCCCCCCC(=O)N[C@H](C(=O)N6C[C@H](O)C[C@H]6C(=O)NCc6ccc(-c7scnc7C)cc6)C(C)(C)C)CC5)C4)c3n2)cc1C(=O)Oc1ccccc1`, the inhibition entry in [6] and in assay [11] was “Active” in each case. In addition, the Activity entry in [7] is “Dose-dependent-effect”; in assay [12], 7.29%; in assay [13], 2.29%; in [14], 0.11%; in assay [15], “Active; More Potent Than 10 Um Idelalisib”; in assay [16], 1.16%. The Activity in [17] turned out to be 5.5%; in assay [18] it was 4.79%; in assay [21], 2.73%; in assay [22], 0.31%; in [24], 72.97%. For the same compound, in assay [8], the viability at 0.1 µM came out at 90.1%. Besides, the results for the GI50 in assay [9] and in [20] were 0.37 µM and 0.2 µM, respectively. Moreover, the viability at 1 µM in [10] was found to be 20.4%. The viability at 0.01 µM in assay [19] stood at 92.4%. Besides, the outcome in assay [23] was Active.
Turning to `CC[C@H](Nc1ncnc2[nH]cnc12)c1nc2cccc(F)c2c(=O)n1-c1ccccc1` [IDELALISIB], in assay [25], the inhibition in vivo at 2 mg/kg worked out at 36.3%. Also, the Activity in [26] is recorded as 11.55%; in assay [27], 0.13%; in [16], 3.25%; in assay [17], 0.18%; in assay [30] it was 8.2%; in [24] it was 4.89%. Besides, the 50% growth inhibitory concentration (GI50) was found to be 8.55 µM in [9] and 0.25 µM in assay [20]. Also, in [10], the viability at 1 µM amounted to 91.7%. In addition, the viability at 10 µM in assay [28] is 80.1%. The inhibition in assay [29] was 81%.

For orientation: pIC50 means −log10 of the IC50, conventionally taken in molar units. Usually inhibition stands for the share of the control response that was lost under treatment. For orientation: GI50 means the concentration at which growth is held to half of that of the control.
